SMILES strings stand for the structures.

The first series is described as follows: Stability test: storage in nitrogen-filled sealed bottles, purity test by HPLC every month. In kind it is physicochemical. To be noted: Table 1, stored at −20° C., 1 month. As for the experimental part:
I. Preparation of samples
1. The products of Examples 1 to 4, Examples 10 to 13, and the comparative example were each dispensed into 13 bottles, each of 50 mg; and the bottles were filled with nitrogen and sealed. One of the bottles (initial sample) was first tested, and the remaining 12 bottles were divided into two groups (each with 6 bottles) and stored. The bottles in each group were numbered 1 to 6 according to a test sequence. The two groups of bottles were stored at 2° C. to 8° C. and −20° C., respectively; and one sample was tested every month.
2. The products of Examples 6 to 9 and Example 14 were each dispensed into 7 bottles, each of 50 mg; and the bottles were filled with nitrogen and sealed. One of the bottles (initial sample) was first tested, and the remaining 6 bottles were numbered 1 to 6 according to a test sequence and then stored at 2° C. to 8° C. One sample was tested every month.
II. Preparation of test sample solutions
One bottle of sample was taken at a time and prepared into a 5 mL or 10 mL solution using a 5 mL or 10 mL volumetric flask, and then the solution was filtered through a membrane to be ready for purity test by HPLC.
Mobile phase: isocratic elution: 5% water (0.1% formic acid)+95% methanol (0.1% formic acid)
Temperature and humidity: 23.0° C. and 54% RH
Sample dissolution: dissolution by methanol
Chromatographic column: ODS-2, 4.6 * 250 mm, 5 μm, and constant pressure: 12 Mpa to 13 Mpa
Running time: ≥15 min IV.
Turning to `NC(=O)c1ccc[n+]([C@@H]2O[C@H](CO)[C@@H](O)[C@H]2O)c1.O=C(O)CC(O)(CC(=O)O)C(=O)O.O=C(O)CC(O)(CC(=O)O)C(=O)[O-]` [Example 2, citrate of NR (1:2)], the “purity by HPLC, Time (month) 1” value is 98.317.

The same series, now with this note: Table 1, stored at −20° C., 2 months.
For the molecule `NC(=O)c1ccc[n+]([C@@H]2O[C@H](CO)[C@@H](O)[C@H]2O)c1.O=C(O)CC(O)(CC(=O)O)C(=O)O.O=C(O)CC(O)(CC(=O)O)C(=O)[O-]` [Example 2, citrate of NR (1:2)], the “purity by HPLC, Time (month) 2” value is reported as 98.079.

The series is the same for the next values; noted with them: Table 1, stored at −20° C., 3 months.
On to `NC(=O)c1ccc[n+]([C@@H]2O[C@H](CO)[C@@H](O)[C@H]2O)c1.O=C(O)CC(O)(CC(=O)O)C(=O)O.O=C(O)CC(O)(CC(=O)O)C(=O)[O-]` [Example 2, citrate of NR (1:2)], for which the “purity by HPLC, Time (month) 3” value was found to be 98.168.

Still in this series, the particulars now being: Table 1, stored at −20° C., 4 months.
With `NC(=O)c1ccc[n+]([C@@H]2O[C@H](CO)[C@@H](O)[C@H]2O)c1.O=C(O)CC(O)(CC(=O)O)C(=O)O.O=C(O)CC(O)(CC(=O)O)C(=O)[O-]` [Example 2, citrate of NR (1:2)], the “purity by HPLC, Time (month) 4” value was determined as 97.933.

Staying with this series, now noted: Table 1, stored at −20° C., 5 months.
Turning to `NC(=O)c1ccc[n+]([C@@H]2O[C@H](CO)[C@@H](O)[C@H]2O)c1.O=C(O)CC(O)(CC(=O)O)C(=O)O.O=C(O)CC(O)(CC(=O)O)C(=O)[O-]` [Example 2, citrate of NR (1:2)], the “purity by HPLC, Time (month) 5” value is listed as 97.806.

Still in this series, the particulars now being: Table 1, stored at −20° C., 6 months.
Consider `NC(=O)c1ccc[n+]([C@@H]2O[C@H](CO)[C@@H](O)[C@H]2O)c1.O=C(O)CC(O)(CC(=O)O)C(=O)O.O=C(O)CC(O)(CC(=O)O)C(=O)[O-]` [Example 2, citrate of NR (1:2)], for which the “purity by HPLC, Time (month) 6” value came out at 97.788.

The same series, now with this note: Table 1, stored at −20° C., over 6 months.
Consider `NC(=O)c1ccc[n+]([C@@H]2O[C@H](CO)[C@@H](O)[C@H]2O)c1.O=C(O)CC(O)(CC(=O)O)C(=O)O.O=C(O)CC(O)(CC(=O)O)C(=O)[O-]` [Example 2, citrate of NR (1:2)], for which the Decomposition rate is listed as 0.69%.

The series is the same for the next values; noted with them: Table 1, −20° C., initial sample (0 month).
For the molecule `NC(=O)c1ccc[n+]([C@@H]2O[C@H](CO)[C@@H](O)[C@H]2O)c1.O=C(O)CC(O)(CC(=O)O)C(=O)O.O=C(O)CC(O)(CC(=O)O)C(=O)[O-]` [Example 2, citrate of NR (1:2)], the “purity by HPLC, Time (month) 0” value worked out at 98.471.

Still in this series, the particulars now being: Table 2, 2° C. to 8° C., initial sample (0 month).
Consider `NC(=O)c1ccc[n+]([C@@H]2O[C@H](CO)[C@@H](O)[C@H]2O)c1.O=C(O)CC(O)(CC(=O)O)C(=O)O.O=C(O)CC(O)(CC(=O)O)C(=O)[O-]` [Example 2, citrate of NR (1:2)], for which the “purity by HPLC, Time (month) 0” value was 98.471.

The series is the same for the next values; noted with them: Table 2, stored at 2° C. to 8° C., 1 month.
Turning to `NC(=O)c1ccc[n+]([C@@H]2O[C@H](CO)[C@@H](O)[C@H]2O)c1.O=C(O)CC(O)(CC(=O)O)C(=O)O.O=C(O)CC(O)(CC(=O)O)C(=O)[O-]` [Example 2, citrate of NR (1:2)], the “purity by HPLC, Time (month) 1” value is recorded as 98.492.

The series is the same for the next values; noted with them: Table 2, stored at 2° C. to 8° C., 2 months.
Regarding `NC(=O)c1ccc[n+]([C@@H]2O[C@H](CO)[C@@H](O)[C@H]2O)c1.O=C(O)CC(O)(CC(=O)O)C(=O)O.O=C(O)CC(O)(CC(=O)O)C(=O)[O-]` [Example 2, citrate of NR (1:2)], the “purity by HPLC, Time (month) 2” value is 98.240.

Staying with this series, now noted: Table 2, stored at 2° C. to 8° C., 3 months.
As to `NC(=O)c1ccc[n+]([C@@H]2O[C@H](CO)[C@@H](O)[C@H]2O)c1.O=C(O)CC(O)(CC(=O)O)C(=O)O.O=C(O)CC(O)(CC(=O)O)C(=O)[O-]` [Example 2, citrate of NR (1:2)], the “purity by HPLC, Time (month) 3” value is given as 98.097.

The series is the same for the next values; noted with them: Table 2, stored at 2° C. to 8° C., 4 months.
In the case of `NC(=O)c1ccc[n+]([C@@H]2O[C@H](CO)[C@@H](O)[C@H]2O)c1.O=C(O)CC(O)(CC(=O)O)C(=O)O.O=C(O)CC(O)(CC(=O)O)C(=O)[O-]` [Example 2, citrate of NR (1:2)], the “purity by HPLC, Time (month) 4” value amounted to 97.626.

Staying with this series, now noted: Table 2, stored at 2° C. to 8° C., 5 months.
As for `NC(=O)c1ccc[n+]([C@@H]2O[C@H](CO)[C@@H](O)[C@H]2O)c1.O=C(O)CC(O)(CC(=O)O)C(=O)O.O=C(O)CC(O)(CC(=O)O)C(=O)[O-]` [Example 2, citrate of NR (1:2)], the “purity by HPLC, Time (month) 5” value came out at 97.704.

Still in this series, the particulars now being: Table 2, stored at 2° C. to 8° C., 6 months.
For the molecule `NC(=O)c1ccc[n+]([C@@H]2O[C@H](CO)[C@@H](O)[C@H]2O)c1.O=C(O)CC(O)(CC(=O)O)C(=O)O.O=C(O)CC(O)(CC(=O)O)C(=O)[O-]` [Example 2, citrate of NR (1:2)], the “purity by HPLC, Time (month) 6” value is on record as 97.498.

Staying with this series, now noted: Table 2, stored at 2° C. to 8° C., over 6 months.
In turn, `NC(=O)c1ccc[n+]([C@@H]2O[C@H](CO)[C@@H](O)[C@H]2O)c1.O=C(O)CC(O)(CC(=O)O)C(=O)O.O=C(O)CC(O)(CC(=O)O)C(=O)[O-]` [Example 2, citrate of NR (1:2)] returned a Decomposition rate of 0.99%.

Staying with this series, now noted: in words; comparison with the corresponding 1:1 product.
In the case of `NC(=O)c1ccc[n+]([C@@H]2O[C@H](CO)[C@@H](O)[C@H]2O)c1.O=C(O)CC(O)(CC(=O)O)C(=O)O.O=C(O)CC(O)(CC(=O)O)C(=O)[O-]` [Example 2, citrate of NR (1:2)], the “stability, molar ratio (NR to organic acid) 1:2 compared with 1:1” value is “higher stability”.
